Assays:
[1] = molecular target: hERG potassium channel current (IKr) (Homo sapiens, UniProt Q12809); details: Phase 1, 30 μM in protein free perfusate, n=3
Description: This assay is employed as a screen to assess potential risks for QT interval prolongation.

Sprague Dawley rats = assay: 14-day repeat-dose intranasal toxicity and toxicokinetic study in rats (Study 700041); details: rat
Beagle dogs = assay: 14-day repeat-dose intranasal toxicity and toxicokinetic study in dogs (Study 62959); assay type: in vivo; details: dog
Description: Assessments of mortality, clinical signs, olfactory reflex, body weights, food consumption, ophthalmology, and electrocardiograms were performed.

[2] = intranasal 5 mg/kg/day, Day 1, Female
[3] = intranasal 5 mg/kg/day, Day 1, Male
[4] = intranasal 5 mg/kg/day, Day 14, Female
[5] = intranasal 5 mg/kg/day, Day 14, Male
[6] = intranasal 20 mg/kg/day, Day 1, Female
[7] = intranasal 20 mg/kg/day, Day 1, Male
[8] = intranasal 20 mg/kg/day, Day 14, Female
[9] = intranasal 20 mg/kg/day, Day 14, Male
[10] = intranasal 75 mg/kg/day, Day 1, Female
[11] = intranasal 75 mg/kg/day, Day 1, Male
[12] = intranasal 75 mg/kg/day, Day 14, Female
[13] = intranasal 75 mg/kg/day, Day 14, Male
[14] = intranasal 0.4 mg/kg/day, Day 1, Female
[15] = intranasal 0.4 mg/kg/day, Day 1, Male
[16] = intranasal 0.4 mg/kg/day, Day 14, Female
[17] = intranasal 0.4 mg/kg/day, Day 14, Male
[18] = intranasal 0.8 mg/kg/day, Day 1, Male
[19] = intranasal 0.8 mg/kg/day, Day 14, Male

Sequence of hERG potassium channel current (IKr) (Q12809 whole entry): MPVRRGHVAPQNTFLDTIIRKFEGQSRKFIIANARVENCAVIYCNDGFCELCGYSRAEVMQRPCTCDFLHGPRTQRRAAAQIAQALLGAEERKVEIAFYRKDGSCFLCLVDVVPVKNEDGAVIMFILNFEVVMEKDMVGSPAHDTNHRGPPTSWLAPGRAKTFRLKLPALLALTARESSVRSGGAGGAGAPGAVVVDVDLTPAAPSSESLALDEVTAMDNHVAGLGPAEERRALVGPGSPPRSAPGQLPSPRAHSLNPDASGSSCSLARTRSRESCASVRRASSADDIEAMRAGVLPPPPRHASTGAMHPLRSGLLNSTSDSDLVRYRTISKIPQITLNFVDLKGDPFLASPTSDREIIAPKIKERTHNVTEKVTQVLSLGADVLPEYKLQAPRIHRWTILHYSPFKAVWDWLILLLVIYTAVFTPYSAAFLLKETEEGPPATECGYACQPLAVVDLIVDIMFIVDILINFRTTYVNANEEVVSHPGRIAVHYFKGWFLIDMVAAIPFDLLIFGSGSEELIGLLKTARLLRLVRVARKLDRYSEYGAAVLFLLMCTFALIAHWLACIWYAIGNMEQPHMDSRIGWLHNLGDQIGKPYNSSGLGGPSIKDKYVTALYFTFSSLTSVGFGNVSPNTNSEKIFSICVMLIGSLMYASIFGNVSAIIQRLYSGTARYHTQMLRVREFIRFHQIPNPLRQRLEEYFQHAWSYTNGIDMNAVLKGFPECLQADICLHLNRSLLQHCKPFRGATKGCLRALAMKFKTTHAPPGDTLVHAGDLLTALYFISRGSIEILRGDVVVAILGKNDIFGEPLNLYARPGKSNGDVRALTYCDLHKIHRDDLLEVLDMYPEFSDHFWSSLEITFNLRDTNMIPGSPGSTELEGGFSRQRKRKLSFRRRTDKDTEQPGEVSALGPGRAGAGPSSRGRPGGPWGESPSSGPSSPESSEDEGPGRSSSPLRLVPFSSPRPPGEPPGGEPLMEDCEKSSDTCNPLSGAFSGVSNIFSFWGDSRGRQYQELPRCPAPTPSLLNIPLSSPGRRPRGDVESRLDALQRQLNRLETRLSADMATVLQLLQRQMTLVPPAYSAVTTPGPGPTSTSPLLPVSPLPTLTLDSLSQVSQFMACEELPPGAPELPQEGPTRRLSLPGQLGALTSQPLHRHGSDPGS

## COc1ccc2[nH]cc(CCN(C)C)c2c1 [Compound 5-MeO-DMT, 5-methoxy-N,N-dimethyltryptamine]
[1]
  Inhibition of hERG potassium ion current: 77.8±7.4%
Sprague Dawley rats; [2]
  AUC0-Tlast [SE]: 53.2 [15.9] h*ng/mL
  AUCINF—obs: (53.7) h*ng/mL
  Cmax [SE]: 186 [98.7] ng/mL
  Tmax: 9.96 min
Sprague Dawley rats; [3]
  AUC0-Tlast [SE]: 39.9 [7.35] h*ng/mL
  AUCINF—obs: (40.1) h*ng/mL
  Cmax [SE]: 191 [45.6] ng/mL
Sprague Dawley rats; [4]
  AUC0-Tlast [SE]: 63.8 [4.55] h*ng/mL
  AUCINF—obs: (64.0) h*ng/mL
  Cmax [SE]: 645 [106] ng/mL
  t1/2: 6.78 min
Sprague Dawley rats; [5]
  AUC0-Tlast [SE]: 114 [13.8] h*ng/mL
  AUCINF—obs: (115) h*ng/mL
  Cmax [SE]: 627 [102] ng/mL
Sprague Dawley rats; [6]
  AUC0-Tlast [SE]: 198 [15.2] h*ng/mL
  AUCINF—obs: (198) h*ng/mL
  Cmax [SE]: 679 [162] ng/mL
Sprague Dawley rats; [7]
  AUC0-Tlast [SE]: 420 [62.1] h*ng/mL
  AUCINF—obs: (421) h*ng/mL
  Cmax [SE]: 4190 [1040] ng/mL
  t1/2: 7.5 min
Sprague Dawley rats; [8]
  AUC0-Tlast [SE]: 169 [21.2] h*ng/mL
  AUCINF—obs: (169) h*ng/mL
  Cmax [SE]: 795 [115] ng/mL
Sprague Dawley rats; [9]
  AUC0-Tlast [SE]: 133 [57.2] h*ng/mL
  AUCINF—obs: (133) h*ng/mL
  Cmax [SE]: 1200 [857] ng/mL
Sprague Dawley rats; [10]
  AUC0-Tlast [SE]: 228 [49.7] h*ng/mL
  AUCINF—obs: (228) h*ng/mL
  Cmax [SE]: 1310 [802] ng/mL
  t1/2: 9.36 min
Sprague Dawley rats; [11]
  AUC0-Tlast [SE]: 1030 [114] h*ng/mL
  AUCINF—obs: (1040) h*ng/mL
  Cmax [SE]: 7010 [1010] ng/mL
Sprague Dawley rats; [12]
  AUC0-Tlast [SE]: 155 [53.8] h*ng/mL
  AUCINF—obs: (156) h*ng/mL
  Cmax [SE]: 870 [361] ng/mL
  t1/2: 7.8 min
Sprague Dawley rats; [13]
  AUC0-Tlast [SE]: 391 [228] h*ng/mL
  AUCINF—obs: (392) h*ng/mL
  Cmax [SE]: 3290 [2510] ng/mL
  t1/2: 6.96 min
Beagle dogs; [14]
  AUC0-Tlast: 104 ng·h/mL
  AUCINF—obs: 106 ng·h/mL
  t1/2: 18.7 min
Beagle dogs; [15]
  AUC0-Tlast: 77.9 ng·h/mL
  AUCINF—obs: 80.9 ng·h/mL
  t1/2: 34.3 min
Beagle dogs; [16]
  AUC0-Tlast: 86.4 ng·h/mL
  AUCINF—obs: 95.9 ng·h/mL
  Cmax: 196 ng/mL
Beagle dogs; [17]
  AUC0-Tlast: 70.6 ng·h/mL
  AUCINF—obs: 77.7 ng·h/mL
  Cmax: 285 ng/mL
Beagle dogs; [18]
  AUC0-Tlast: 152 ng·h/mL
  Cmax: 300 ng/mL
  t1/2: 35.7 min
Beagle dogs; intranasal 0.8 mg/kg/day, Day 14, Female
  t1/2: 95.4 min
Beagle dogs; [19]
  AUC0-Tlast: 298 ng·h/mL
  AUCINF—obs: 322 ng·h/mL
  Cmax: 411 ng/mL
  t1/2: 79.2 min
